This is an account of results in BindingDB's records for PubMed 15173008 (Wyeth Research).

This assay in a line: Inhibition of recombinant PDK1 (unknown origin) using peptide as substrate.

Molecules are shown by their SMILES.

As to `COc1cc2ncc(C#N)c(Nc3ccc(OCc4ccccn4)c(Cl)c3)c2cc1NC(=O)/C=C/CN(C)C`, the IC50 (as a rule, the concentration needed to halve the response being measured) was over 5 µM.
